In patent US20240067632A1, “WEE1 Degrading Compounds and Uses Thereof” (Bristol-Myers Squibb Company, priority 2022, published 2024):
Read-outs that look alike come from different tables or passages of the source.

Legend:
MKN45 cells = test: MKN45 cell proliferation assay (Cell-Titer-Glo, 120 h); format: cell-based; conditions: for EC50: Homo sapiens, MKN-45, 120 h, Cell-Titer-Glo, read-out: MKN45 Cell Prolif. 120 hr (EC50); for MKN45 Cell Prolif. 120 hr (Ymin-Obs): minimal percent of DMSO control observed in the concentrations tested
Procedure, shortened: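 Cells seeded at 400/well onto pre-printed 10-point half-log dilutions (top 1 or 10 uM, 0.1% DMSO final), in triplicate, and grown 120 h at 37 C. Viability by Cell-Titer-Glo luminescence, blank-subtracted and normalised to DMSO; EC50 from four-parameter logistic fit, with observed minimal % of control recorded as Ymin-obs.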

WEE1 = molecular target: T1, WEE1 (Homo sapiens, UniProt P30291+Q96SW2); test: WEE1-ePL degradation assay (LentiX-WEE1-ePL-GSPT1-ND cells, InCELL Hunter luminescence, 4 h); format: cell-based; conditions: 293T-LentiX WEE1-ePL cells; for DC50: read-out: 293T-LentiX WEE1-ePL Degradation 4 hr (EC50)
T1 construct: C-terminal ePL-tagged (DiscoverX, Fremont, CA) full-length WEE1 expression construct; expressed in transfected cells; host or cells: LentiX-HEK293T (Invitrogen), lentiviral transduction; co-expressing GSPT1-GN (G576N, lacking the first 158 amino acids)
Procedure, shortened: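 First, compounds were pre-plated as 10-point, 3-fold dilutions (top 1 uM or 10 uM) with DMSO control; next, WEE1-ePL-expressing HEK293T cells were added and held 4 h at 37 °C; finally, InCELL Hunter reagent was applied for 30 min before luminescence reading. A 4PL fit gave EC50 and Ymin.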

[1] = lower limit of the fit (0 = luciferase inhibitor, Ymax = DMSO control)
[2] = lower limit of the fit (Ymin=0 luciferase inhibitor, Ymax DMSO control)

| Structure (SMILES) | EC50 (MKN45 cells; growth inhibition) | MKN45 Cell Prolif. 120 hr (Ymin-Obs) (MKN45 cells) | 293T-LentiX WEE1-ePL Degradation 4 hr (Ymin) (WEE1; [1]) | DC50 (WEE1) | EC50 (MKN45 cells) | 293T-LentiX WEE1-ePL Degradation 4 hr (Ymin) (WEE1; [2]) |
| --- | --- | --- | --- | --- | --- | --- |
| O=C1CCC(N2Cc3cc(O[C@H]4CCN(Cc5ccc6nc(C(F)(F)F)ccc6c5)C4)ccc3C2=O)C(=O)N1 (stereo partly drawn) [3-(1-oxo-5-{[(3S)-1-{[2-(trifluoromethyl)quinolin-6-yl]methyl}pyrrolidin-3-yl]oxy}-2,3-dihydro-1H-isoindol-2-yl)piperidine-2,6-dione] | 7.29 nM | 8.76 | 24.72 | 5.42 nM |  |  |
| O=C1CCC(N2Cc3cc(O[C@H]4CCN(Cc5ccc6ncc(C(F)(F)F)cc6c5)C4)ccc3C2=O)C(=O)N1 (stereo partly drawn) [3-(1-oxo-5-{[(3S)-1-{[3-(trifluoromethyl)quinolin-6-yl]methyl}pyrrolidin-3-yl]oxy}-2,3-dihydro-1H-isoindol-2-yl)piperidine-2,6-dione] | 15.9 nM | 11.23 | 32 | 2.85 nM |  |  |
| O=C1CCC(N2Cc3cc(O[C@H]4CCN(Cc5ccc(C(F)(F)F)cn5)C4)ccc3C2=O)C(=O)N1 (stereo partly drawn) [3-(1-oxo-5-{[(3S)-1-{[5-(trifluoromethyl)pyridin-2-yl]methyl}pyrrolidin-3-yl]oxy}-2,3-dihydro-1H-isoindol-2-yl)piperidine-2,6-dione] | 363 nM | 65.6 | 53.66 | 52.6 nM |  |  |
| O=C1CCC(N2Cc3cc(O[C@H]4CCN(Cc5cncc(C(F)(F)F)c5)C4)ccc3C2=O)C(=O)N1 (stereo partly drawn) [3-(1-oxo-5-{[(3S)-1-{[5-(trifluoromethyl)pyridin-3-yl]methyl}pyrrolidin-3-yl]oxy}-2,3-dihydro-1H-isoindol-2-yl)piperidine-2,6-dione] | 842 nM | 54.82 | 33.76 | 36.9 nM |  |  |
| O=C1CCC(N2Cc3cc(O[C@H]4CCN(Cc5cc6ccc(C(F)(F)F)cc6cn5)C4)ccc3C2=O)C(=O)N1 (stereo partly drawn) [3-(1-oxo-5-{[(3S)-1-{[7-(trifluoromethyl)isoquinolin-3-yl]methyl}pyrrolidin-3-yl]oxy}-2,3-dihydro-1H-isoindol-2-yl)piperidine-2,6-dione] | 1.14 nM | 6.875 | 31 | 1.47 nM |  |  |
| [2H]c1nc2ccccc2cc1CN1CCC(Oc2ccc3c(c2)CN(C2CCC(=O)NC2=O)C3=O)C1 [3-(1-oxo-5-{[(3S)-1-{[(2-^2H)quinolin-3-yl]methyl}pyrrolidin-3-yl]oxy}-2,3-dihydro-1H-isoindol-2-yl)piperidine-2,6-dione] | 28.5 nM | 9.675 | 25.75 | 8.41 nM |  |  |
| [2H]c1ccc2cc(CN3CCC(Oc4ccc5c(c4)CN(C4CCC(=O)NC4=O)C5=O)C3)ccc2n1 [3-(1-oxo-5-{[(3S)-1-{[(2-^2H)quinolin-6-yl]methyl}pyrrolidin-3-yl]oxy}-2,3-dihydro-1H-isoindol-2-yl)piperidine-2,6-dione] | 26.9 nM | 9.14 | 29.5 | 4.09 nM |  |  |
| O=C1CCC(N2Cc3cc(O[C@@H]4CN(Cc5ccc6nc([C@H]7CCOC7)ccc6c5)C[C@H]4C(F)(F)F)ccc3C2=O)C(=O)N1 (stereo partly drawn) [3-(1-oxo-5-{[(3S,4R)-1-({2-[(3R)-oxolan-3-yl]quinolin-6-yl}methyl)-4-(trifluoromethyl)pyrrolidin-3-yl]oxy}-2,3-dihydro-1H-isoindol-2-yl)piperidine-2,6-dione] |  | 24.26 |  | 3.64 nM | 22.6 nM | 27.14 |
| O=C1CCC(N2Cc3ccc(O[C@H]4CCN(Cc5cnc6ccccc6c5)C4)cc3C2=O)C(=O)N1 (stereo partly drawn) [3-(1-oxo-6-{[(3S)-1-[(quinolin-3-yl)methyl]pyrrolidin-3-yl]oxy}-2,3-dihydro-1H-isoindol-2-yl)piperidine-2,6-dione] | 42.4 nM | 12.43 | 27.98 | 8.74 nM |  |  |
| O=C1CCC(N2Cc3ccc(O[C@H]4CCN(Cc5ccc6ncccc6c5)C4)cc3C2=O)C(=O)N1 (stereo partly drawn) [3-(1-oxo-6-{[(3S)-1-[(quinolin-6-yl)methyl]pyrrolidin-3-yl]oxy}-2,3-dihydro-1H-isoindol-2-yl)piperidine-2,6-dione] | 14.6 nM | 82.37 | 88.79 |  |  |  |
| Cc1ccc2cc(CN3CC[C@H](Oc4ccc5c(c4)CN(C4CCC(=O)NC4=O)C5=O)[C@H]3C)ccc2n1 (stereo partly drawn) [3-(5-{[(2R,3S)-2-methyl-1-[(2-methylquinolin-6-yl)methyl]pyrrolidin-3-yl]oxy}-1-oxo-2,3-dihydro-1H-isoindol-2-yl)piperidine-2,6-dione] | 339 nM | 28.935 | 34 | 16.7 nM |  |  |
| Cc1ccc2cc(CN3CC[C@H](Oc4ccc5c(c4)CN(C4CCC(=O)NC4=O)C5=O)[C@@H]3C)ccc2n1 (stereo partly drawn) [3-(5-{[(2S,3S)-2-methyl-1-[(2-methylquinolin-6-yl)methyl]pyrrolidin-3-yl]oxy}-1-oxo-2,3-dihydro-1H-isoindol-2-yl)piperidine-2,6-dione] | > 10000 nM | 87.455 | 99.5 |  |  |  |
| O=C1CCC(N2Cc3cc(O[C@@H]4CN(Cc5ccc6nc([C@H]7CCOC7)ccc6c5)CC4(F)F)ccc3C2=O)C(=O)N1 (stereo partly drawn) [3-(5-{[(3R)-4,4-difluoro-1-({2-[(3R)-oxolan-3-yl]quinolin-6-yl}methyl)pyrrolidin-3-yl]oxy}-1-oxo-2,3-dihydro-1H-isoindol-2-yl)piperidine-2,6-dione] |  | 8.764 |  | 8.49 nM | 8.42 nM | 30.81 |
| O=C1CCC(N2Cc3cc(O[C@@H]4CN(Cc5ccc6nc([C@@H]7CCOC7)ccc6c5)CC4(F)F)ccc3C2=O)C(=O)N1 (stereo partly drawn) [3-(5-{[(3R)-4,4-difluoro-1-({2-[(3S)-oxolan-3-yl]quinolin-6-yl}methyl)pyrrolidin-3-yl]oxy}-1-oxo-2,3-dihydro-1H-isoindol-2-yl)piperidine-2,6-dione] |  | 9.159 |  | 8.39 nM | 9.93 nM | 30.61 |
| O=C1CCC(N2Cc3cc(O[C@@H]4CN(Cc5ccc6nc(C7CCOCC7)ccc6c5)CC4(F)F)ccc3C2=O)C(=O)N1 (stereo partly drawn) [3-(5-{[(3R)-4,4-difluoro-1-{[2-(oxan-4-yl)quinolin-6-yl]methyl}pyrrolidin-3-yl]oxy}-1-oxo-2,3-dihydro-1H-isoindol-2-yl)piperidine-2,6-dione] | 21.3 nM | 10.78 | 27.9 | 39.1 nM |  |  |
| O=C1CCC(N2Cc3cc(O[C@@H]4CN(Cc5ccc6nc([C@H]7CCOC7)ccc6c5)C[C@H]4F)ccc3C2=O)C(=O)N1 (stereo partly drawn) [3-(5-{[(3R,4R)-4-fluoro-1-({2-[(3R)-oxolan-3-yl]quinolin-6-yl}methyl)pyrrolidin-3-yl]oxy}-1-oxo-2,3-dihydro-1H-isoindol-2-yl)piperidine-2,6-dione] |  | 20.39 |  | 8.43 nM | 18.7 nM | 34.71 |
| O=C1CCC(N2Cc3cc(O[C@@H]4CN(Cc5ccc6nc([C@@H]7CCOC7)ccc6c5)C[C@H]4F)ccc3C2=O)C(=O)N1 (stereo partly drawn) [3-(5-{[(3R,4R)-4-fluoro-1-({2-[(3S)-oxolan-3-yl]quinolin-6-yl}methyl)pyrrolidin-3-yl]oxy}-1-oxo-2,3-dihydro-1H-isoindol-2-yl)piperidine-2,6-dione] | 29.1 nM | 20.1 | 29.32 | 9.69 nM |  |  |
| O=C1CCC(N2Cc3cc(O[C@@H]4CN(Cc5ccc6nc(C7CCOCC7)ccc6c5)C[C@H]4F)ccc3C2=O)C(=O)N1 (stereo partly drawn) [3-(5-{[(3R,4R)-4-fluoro-1-{[2-(oxan-4-yl)quinolin-6-yl]methyl}pyrrolidin-3-yl]oxy}-1-oxo-2,3-dihydro-1H-isoindol-2-yl)piperidine-2,6-dione] | 28.6 nM | 30.89 | 36.81 | 14.6 nM |  |  |
